Common to all, as to assay: β-arrestin recruitment assay
Holding throughout (type): cell-based
Background: Arrestin recruitment assays detect the binding of arrestin to an activated receptor.

For assay [1], the target named is T1, GPR143 (pm-GPR143) (Homo sapiens, UniProt P51810, E330A/L223A/L224A/W329A).
For assay [2], the target named is T1, GPR143 (pm-GPR143). This is another data set of the same source.
The target of a further assay is GPR143 (wt-GPR143) (Homo sapiens, UniProt P51810).

The structures appear in SMILES notation. Where two headings read alike, the source gives them in different places.

T1 sequence (P51810 whole entry L223A/L224A/W329A/E330A): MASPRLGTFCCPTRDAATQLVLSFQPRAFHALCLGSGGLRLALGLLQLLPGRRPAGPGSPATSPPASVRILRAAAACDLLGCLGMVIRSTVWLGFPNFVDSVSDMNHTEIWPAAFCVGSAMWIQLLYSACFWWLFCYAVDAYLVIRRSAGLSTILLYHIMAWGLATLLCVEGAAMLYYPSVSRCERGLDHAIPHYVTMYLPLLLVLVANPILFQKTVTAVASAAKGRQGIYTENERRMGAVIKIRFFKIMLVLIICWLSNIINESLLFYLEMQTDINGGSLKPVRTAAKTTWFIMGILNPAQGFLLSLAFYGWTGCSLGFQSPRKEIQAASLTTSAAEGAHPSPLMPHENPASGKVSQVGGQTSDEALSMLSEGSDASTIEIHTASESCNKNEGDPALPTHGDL
GPR143 (wt-GPR143), sequence (P51810 whole entry): as the sequence (P51810 whole entry L223A/L224A/W329A/E330A) above, with A223L, A224L, A329W, A330E counted along it

At GPR143 (pm-GPR143) [1], `CCOc1ccc2nc3cc(N)ccc3c(N)c2c1` [ethacridine lactate] yielded an EC50 of 26.1 ± 1.03 µM.

On to `O=C(Nc1ccc([N+](=O)[O-])cc1Cl)c1cc(Cl)ccc1O` [niclosamide], for which a half-maximal response on GPR143 (pm-GPR143) [1] (EC50) required 3.4 ± 1.11 µM.

On to `O=c1[nH]c2ccccc2n1C1CCN(CCCC(c2ccc(F)cc2)c2ccc(F)cc2)CC1` [pimozide], for which the figures for the EC50 at GPR143 (pm-GPR143) [2] and on GPR143 (wt-GPR143) were 2720 ± 1170 nM and 4.62 ± 1.37 µM, respectively.

For orientation: EC50 means the concentration needed to bring the measured effect to its halfway point. Lower therefore signals an effect from little substance.

(Values after publication PMC5482243 (Investigative Ophthalmology & Visual Science, 2017).)
